Reference: ChEMBL document CHEMBL1157339, “Sundaicumones A and B, polyprenylated acylphloroglucinol derivatives from Calophyllumsundaicum with weak activity against the glucocorticoid receptor” (J Nat Prod, 2006)

Target: T1, Glucocorticoid receptor (Homo sapiens, UniProt P04150)
T1 sequence (P04150 whole entry): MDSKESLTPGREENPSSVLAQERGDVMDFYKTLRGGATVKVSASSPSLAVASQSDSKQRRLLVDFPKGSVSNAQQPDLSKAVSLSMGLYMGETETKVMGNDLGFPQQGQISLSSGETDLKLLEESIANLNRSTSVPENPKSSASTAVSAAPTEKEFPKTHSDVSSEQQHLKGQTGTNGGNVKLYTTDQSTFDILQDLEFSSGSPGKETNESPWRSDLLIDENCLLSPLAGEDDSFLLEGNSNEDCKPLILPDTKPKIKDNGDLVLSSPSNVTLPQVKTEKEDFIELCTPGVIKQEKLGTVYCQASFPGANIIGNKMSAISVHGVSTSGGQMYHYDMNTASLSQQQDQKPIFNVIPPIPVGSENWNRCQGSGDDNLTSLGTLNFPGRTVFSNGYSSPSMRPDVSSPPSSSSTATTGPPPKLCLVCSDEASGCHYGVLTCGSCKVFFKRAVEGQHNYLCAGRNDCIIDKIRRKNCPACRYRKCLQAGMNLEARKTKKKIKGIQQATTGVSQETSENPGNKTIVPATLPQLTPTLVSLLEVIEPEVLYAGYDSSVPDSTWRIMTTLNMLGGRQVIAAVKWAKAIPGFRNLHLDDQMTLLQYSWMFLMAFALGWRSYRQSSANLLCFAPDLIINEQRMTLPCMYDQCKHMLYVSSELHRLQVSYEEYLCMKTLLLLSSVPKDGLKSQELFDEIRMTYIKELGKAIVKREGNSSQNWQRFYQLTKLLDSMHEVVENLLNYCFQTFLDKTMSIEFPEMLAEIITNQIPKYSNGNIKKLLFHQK
Test: Activity at glucocorticoid receptor in human A549 cells assessed as effect on GRE promoter response by luciferase reporter assay
Format: cell-based

EC50 [µM] | Compound
173 | CCCC(CC(=O)O)C1=C2O[C@H](C(C)(C)O)C[C@@]23C[C@H](CC(O)C(C)(C)O)C(C)(C)[C@@](C(=O)C(C)CC)(C1=O)C3=O (some centres not stated) [SUNDAICUMONE A]
75 | CCCC(CC(=O)O)C1=C2O[C@H](C(C)(C)O)C[C@@]23C[C@H](CC=C(C)C)C(C)(C)[C@@](C(=O)C(C)CC)(C1=O)C3=O (some centres not stated) [SUNDAICUMONE B]
